Assay results taken from patent US9676714B2, “Sulfonylindole derivatives and method for preparing the same” (Daewoong Pharmaceutical Co., Ltd., priority 2013, dated 2017).
Where a name gives a salt, the structure may show the parent alone.

Target: T1, proton pump (H+/K+-ATPase) (Sus scrofa, UniProt P19156)
T1 construct: Gastric vesicles were prepared from hog stomach via centrifugal separation; from tissue; host or cells: hog stomach (gastric vesicles, method of Rabon et al. 1988)
Test: Measurement of inhibitory effects on proton pump (H+/K+-ATPase) activities
Format: biochemical
Conditions: hog gastric vesicles, K+-specific H+/K+-ATPase activity, Tris-HCl buffer pH 7.4, 37° C. for 40 minutes, malachite green Pi readout
Method: 1) Preparation of Gastric Vesicles
Gastric vesicles were prepared from hog stomach via centrifugal separation (Edd C. Rabon et al., Preparation of Gastric H^+,K^+-ATPase, Methods in enzymology, vol. 157 Academic Press Inc., (1988), pp. 649-654). The protein contents of the thus prepared gastric vesicles were quantitated by Bicinchoninic Acid (BCA) kit.
2) Measurement of Inhibitory Effects on Proton Pump (H^+/K^+-ATPase) Activities
The inhibitory effects of the compounds of the present invention against proton pump activities were measured using a 96-well plate. In this assay, the K^+-specific H^+/K^+-ATPase activities were calculated based on the difference between the H^+/K^+-ATPase activity in the presence of K^+ and that in the absence of K. In the 96-well plate, 0.5% dimethyl sulfoxide (DMSO) in buffer was added to the negative and positive control groups, and the diluted compounds of the present invention were added to the test groups. All assays were performed in a reaction volume of 100 μl at room temperature. The reaction buffer solution (60 mmol/l Tris-HCl buffer, pH 7.4) including the hog gastric vesicles was added with DMSO and the compounds at various concentrations, and then further added with 10 μl of 10 mmol/1 adenosine triphosphate Tris buffer solution (60 mmol/l Tris-HCl buffer, pH 7.4) to initiate an enzyme reaction. […] The amount of monophosphate (Pi) in the reaction was measured at 570 nm using a micro plate reader (FLUOstar Omega, BMG LABTECH). The inhibition rates (%) were determined from the activity values of control groups and those of test compounds at various concentrations, and the […] of the test compounds were calculated based on the respective inhibition value (%) using the Logistic 4-parameter function of Sigmaplot 8.0 program.

T1 sequence (P19156 whole entry): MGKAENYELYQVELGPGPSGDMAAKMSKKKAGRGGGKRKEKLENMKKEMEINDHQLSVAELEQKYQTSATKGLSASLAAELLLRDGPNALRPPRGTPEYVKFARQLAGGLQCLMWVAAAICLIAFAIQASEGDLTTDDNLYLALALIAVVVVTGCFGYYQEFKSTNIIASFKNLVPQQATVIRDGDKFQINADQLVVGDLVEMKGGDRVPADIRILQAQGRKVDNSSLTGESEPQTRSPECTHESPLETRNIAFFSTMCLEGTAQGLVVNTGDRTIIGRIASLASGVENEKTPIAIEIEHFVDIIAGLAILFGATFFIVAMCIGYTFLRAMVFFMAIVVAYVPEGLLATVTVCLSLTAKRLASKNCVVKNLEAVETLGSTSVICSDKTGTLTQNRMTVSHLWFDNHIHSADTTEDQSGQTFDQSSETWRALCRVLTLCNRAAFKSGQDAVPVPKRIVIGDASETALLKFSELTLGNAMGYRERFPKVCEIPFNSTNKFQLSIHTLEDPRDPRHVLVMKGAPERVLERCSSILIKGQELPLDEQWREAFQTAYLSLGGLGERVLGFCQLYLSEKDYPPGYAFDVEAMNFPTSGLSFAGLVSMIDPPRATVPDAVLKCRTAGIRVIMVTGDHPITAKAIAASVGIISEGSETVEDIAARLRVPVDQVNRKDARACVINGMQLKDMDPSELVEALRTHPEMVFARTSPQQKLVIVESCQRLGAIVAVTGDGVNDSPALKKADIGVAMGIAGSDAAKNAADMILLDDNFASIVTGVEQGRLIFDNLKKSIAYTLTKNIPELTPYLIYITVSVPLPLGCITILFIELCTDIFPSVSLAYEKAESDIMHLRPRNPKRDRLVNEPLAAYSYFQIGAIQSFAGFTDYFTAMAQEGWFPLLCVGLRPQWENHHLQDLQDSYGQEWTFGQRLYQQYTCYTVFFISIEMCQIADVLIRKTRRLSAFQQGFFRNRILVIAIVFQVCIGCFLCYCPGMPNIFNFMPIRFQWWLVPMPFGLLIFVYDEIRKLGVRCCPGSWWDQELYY
T1 sequence (P18434 whole entry partner): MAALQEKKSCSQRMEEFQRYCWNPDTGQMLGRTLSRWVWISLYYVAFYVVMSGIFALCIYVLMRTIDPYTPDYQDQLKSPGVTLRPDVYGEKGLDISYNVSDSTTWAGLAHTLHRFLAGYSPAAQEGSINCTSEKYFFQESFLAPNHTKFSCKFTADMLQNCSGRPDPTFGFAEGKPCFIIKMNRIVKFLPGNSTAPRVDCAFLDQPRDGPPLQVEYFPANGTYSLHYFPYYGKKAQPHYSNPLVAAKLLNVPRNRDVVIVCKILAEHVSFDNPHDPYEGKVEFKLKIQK

| SMILES | IC50 [nM] |
| --- | --- |
| CNCc1cn(S(=O)(=O)c2cccnc2)c2cc(Nc3ccccc3F)ccc12 [Example 3, N-(2-fluorophenyl)-3-((methylamino)methyl)-1-(pyridin-3-ylsulfonyl)-1H-indol-6-amine hydrochloride] | 250 |
| CNCc1cn(S(=O)(=O)c2cccnc2)c2cc(Nc3ccccc3Cl)ccc12 [Example 4, N-(2-chlorophenyl)-3-((methylamino)methyl)-1-(pyridin-3-ylsulfonyl)-1H-indol-6-amine hydrochloride] | 60 |
| CNCc1cn(S(=O)(=O)c2cccnc2)c2cc(Nc3cccc(Br)c3)ccc12 [Example 5, N-(3-bromophenyl)-3-((methylamino)methyl)-1-(pyridin-3-ylsulfonyl)-1H-indol-6-amine hydrochloride] | 800 |
| CNCc1cn(S(=O)(=O)c2cccnc2)c2cc(Nc3cccc(Cl)c3)ccc12 [Example 7, N-(3-chlorophenyl)-3-((methylamino)methyl)-1-(pyridin-3-ylsulfonyl)-1H-indol-6-amine hydrochloride] | 590 |
| CCc1cccc(Nc2ccc3c(CNC)cn(S(=O)(=O)c4cccnc4)c3c2)c1 [Example 8, N-(3-ethylphenyl)-3-((methylamino)methyl)-1-(pyridin-3-ylsulfonyl)-1H-indol-6-amine hydrochloride] | 170 |
| CNCc1cn(S(=O)(=O)c2cccnc2)c2cc(Nc3ccc(F)cc3)ccc12 [Example 9, N-(4-fluorophenyl)-3-((methylamino)methyl)-1-(pyridin-3-ylsulfonyl)-1H-indol-6-amine hydrochloride] | 1050 |
| CNCc1cn(S(=O)(=O)c2cccnc2)c2cc(Nc3ccc(C)cc3)ccc12 [Example 10, 3-((methylamino)methyl)-1-(pyridin-3-ylsulfonyl)-N-(p-tolyl)-1H-indol-6-amine hydrochloride] | 200 |
| CNCc1cn(S(=O)(=O)c2cccnc2)c2cc(Nc3ccc(C(F)(F)F)cc3)ccc12 [Example 13, 3-((methylamino)methyl)-1-(pyridin-3-ylsulfonyl)-N-(4-(trifluoromethyl)phenyl)-1H-indol-6-amine hydrochloride] | 1080 |
| CNCc1cn(S(=O)(=O)c2cccnc2)c2cc(Nc3ccc(C(C)(C)C)cc3)ccc12 [Example 14, N-(4-(tert-butyl)phenyl)-3-((methylamino)methyl)-1-(pyridin-3-ylsulfonyl)-1H-indol-6-amine hydrochloride] | 1500 |
| CNCc1cn(S(=O)(=O)c2cccnc2)c2cc(Nc3ccc(-c4cccc(OC)c4)cc3)ccc12 [Example 15, N-(3′-methoxy-[1,1′-biphenyl]-4-yl)-3-((methylamino)methyl)-1-(pyridin-3-ylsulfonyl)-1H-indol-6-amine hydrochloride] | 1850 |
| CNCc1cn(S(=O)(=O)c2cccnc2)c2cc(Nc3ccc(Oc4ccccc4)cc3)ccc12 [Example 17, 3-((methylamino)methyl)-N-(4-phenoxyphenyl)-1-(pyridin-3-ylsulfonyl)-1H-indol-6-amine hydrochloride] | 2250 |
| CNCc1cn(S(=O)(=O)c2cccnc2)c2cc(Nc3ccc(Oc4ccc(F)cc4)cc3)ccc12 [Example 18, N-(4-(4-fluorophenoxy)phenyl)-3-((methylamino)methyl)-1-(pyridin-3-ylsulfonyl)-1H-indol-6-amine hydrochloride] | 1300 |
| CNCc1cn(S(=O)(=O)c2cccnc2)c2cc(Nc3ccc(Oc4ccc(Cl)cc4)cc3)ccc12 [Example 19, N-(4-(4-chlorophenoxy)phenyl)-3-((methylamino)methyl)-1-(pyridin-3-ylsulfonyl)-1H-indol-6-amine hydrochloride] | 1910 |
| CNCc1cn(S(=O)(=O)c2cccnc2)c2cc(Nc3ccc(C)cc3C)ccc12 [Example 21, N-(2,4-dimethylphenyl)-3-((methylamino)methyl)-1-(pyridin-3-ylsulfonyl)-1H-indol-6-amine hydrochloride] | 210 |
| CNCc1cn(S(=O)(=O)c2cccnc2)c2cc(Nc3ccc(F)cc3C(F)(F)F)ccc12 [Example 26, N-(4-fluoro-2-(trifluoromethyl)phenyl)-3-((methylamino)methyl)-1-(pyridin-3-ylsulfonyl)-1H-indol-6-amine hydrochloride] | 180 |
| CNCc1cn(S(=O)(=O)c2cccnc2)c2cc(Nc3ccc(Cl)cc3C#N)ccc12 [Example 30, 5-chloro-2-((3-((methylamino)methyl)-1-(pyridin-3-ylsulfonyl)-1H-indol-6-yl)amino)benzonitrile hydrochloride] | 1140 |
| CNCc1cn(S(=O)(=O)c2cccnc2)c2cc(Nc3ccc(C(F)(F)F)cc3C)ccc12 [Example 32, N-(2-methyl-4-(trifluoromethyl)phenyl)-3-((methylamino)methyl)-1-(pyridin-3-ylsulfonyl)-1H-indol-6-amine hydrochloride] | 810 |
| CNCc1cn(S(=O)(=O)c2cccnc2)c2cc(Nc3ccc(C(F)(F)F)cc3F)ccc12 [Example 33, N-(2-fluoro-4-(trifluoromethyl)phenyl)-3-((methylamino)methyl)-1-(pyridin-3-ylsulfonyl)-1H-indol-6-amine hydrochloride] | 1360 |
| CNCc1cn(S(=O)(=O)c2cccnc2)c2cc(Nc3ccc(C(F)(F)F)cc3C(F)(F)F)ccc12 [Example 35, N-(2,4-Bis(trifluoromethyl)phenyl)-3-((methylamino)methyl)-1-(pyridin-3-ylsulfonyl)-1H-indol-6-amine hydrochloride] | 1630 |
| CCc1cc(C#N)ccc1Nc1ccc2c(CNC)cn(S(=O)(=O)c3cccnc3)c2c1 [Example 37, 3-ethyl-4-((3-((methylamino)methyl)-1-(pyridin-3-ylsulfonyl)-1H-indol-6-yl)amino)benzonitrile hydrochloride] | 500 |

Results, then the compound that gave them:

| IC50 [nM] | SMILES |
| --- | --- |
| 1150 | CNCc1cn(S(=O)(=O)c2cccnc2)c2cc(Nc3ccccc3)ccc12 [Example 2, 3-((methylamino)methyl)-N-phenyl-1-(pyridin-3-ylsulfonyl)-1H-indol-6-amine hydrochloride] |
| 1180 | CNCc1cn(S(=O)(=O)c2cccnc2)c2cc(Nc3cccc(F)c3)ccc12 [Example 6, N-(3-fluorophenyl)-3-((methylamino)methyl)-1-(pyridin-3-ylsulfonyl)-1H-indol-6-amine hydrochloride] |
| 1020 | CNCc1cn(S(=O)(=O)c2cccnc2)c2cc(Nc3ccc(Cl)cc3)ccc12 [Example 11, N-(4-chlorophenyl)-3-((methylamino)methyl)-1-(pyridin-3-ylsulfonyl)-1H-indol-6-amine hydrochloride] |
| 420 | CNCc1cn(S(=O)(=O)c2cccnc2)c2cc(Nc3ccc(OC)cc3)ccc12 [Example 12, N-(4-methoxyphenyl)-3-((methylamino)methyl)-1-(pyridin-3-ylsulfonyl)-1H-indol-6-amine hydrochloride] |
| 780 | CNCc1cn(S(=O)(=O)c2cccnc2)c2cc(Nc3cc(-c4ccccc4)ccc3C)ccc12 [Example 16, N-(4-methyl-[1,1′-biphenyl]-3-yl)-3-((methylamino)methyl)-1-(pyridin-3-ylsulfonyl)-1H-indol-6-amine hydrochloride] |
| 380 | CNCc1cn(S(=O)(=O)c2cccnc2)c2cc(Nc3cccc(C)c3F)ccc12 [Example 20, N-(2-fluoro-3-methylphenyl)-3-((methylamino)methyl)-1-(pyridin-3-ylsulfonyl)-1H-indol-6-amine hydrochloride] |
| 220 | CNCc1cn(S(=O)(=O)c2cccnc2)c2cc(Nc3ccc(F)cc3C)ccc12 [Example 23, N-(4-fluoro-2-methylphenyl)-3-((methylamino)methyl)-1-(pyridin-3-ylsulfonyl)-1H-indol-6-amine hydrochloride] |
| 560 | CNCc1cn(S(=O)(=O)c2cccnc2)c2cc(Nc3ccc(F)cc3F)ccc12 [Example 24, N-(2,4-difluorophenyl)-3-((methylamino)methyl)-1-(pyridin-3-ylsulfonyl)-1H-indol-6-amine hydrochloride] |
| 160 | CNCc1cn(S(=O)(=O)c2cccnc2)c2cc(Nc3ccc(F)cc3Cl)ccc12 [Example 25, N-(2-chloro-4-fluorophenyl)-3-((methylamino)methyl)-1-(pyridin-3-ylsulfonyl)-1H-indol-6-amine hydrochloride] |
| 420 | CNCc1cn(S(=O)(=O)c2cccnc2)c2cc(Nc3ccc(Cl)cc3C)ccc12 [Example 27, N-(4-chloro-2-methylphenyl)-3-((methylamino)methyl)-1-(pyridin-3-ylsulfonyl)-1H-indol-6-amine hydrochloride] |
| 340 | CNCc1cn(S(=O)(=O)c2cccnc2)c2cc(Nc3ccc(C#N)cc3C)ccc12 [Example 36, 3-methyl-4-((3-((methylamino)methyl)-1-(pyridin-3-ylsulfonyl)-1H-indol-6-yl)amino)benzonitrile hydrochloride] |
